Assay [1] concerns the target T1, (H^+ +K^+)ATPase (Rattus norvegicus, UniProt P09626).
T1 construct: Rat gastric mucosal tissue is collected from 170-220 g male Sprague-Dawley rats; from tissue; host or cells: Dispersed gastric mucosal cells from male Sprague-Dawley rats (Pronase E digestion)
Description: Inhibition of dibutyryl cyclic AMP-stimulated 14C-aminopyrine uptake by rat gastric mucosal cells ((H^+ +K^+)ATPase inhibition). The assay is classed as cell-based. The note with it: 37° C., 2 hours. The text has this: The procedures for these tests and the results for some of the compounds of the invention are presented at the end of the following examples, which will serve to illustrate the present invention. The determination of the rate of gastric acid secretion cannot be measured quantitatively with isolated gastric glands or cells. However, the acid secretory response can be monitored semiquantitatively by measuring the uptake of a radiolabelled weak base, ^14 C-aminopyrine (^14 C-AP), which accumulates in the glands in proportion to the pH differences between the intraglandular acid compartments and the surrounding medium. The following assay uses this effect in order to measure the ability of the compounds of the invention to inhibit gastric acid secretion by blocking (H^+ +K^+)ATPase. Rat gastric mucosal tissue is collected from 170-220 g male Sprague-Dawley rats. […] The Pronase E is poured off and the tissues are rinsed in a small amount of DNAse solution (2.5 mg DNAse in 10 ml of Hanks Balanced Salt Solution (HBE) with addition of 1 mg/ml of BSA and 0.76 mg/ml of EGTA). 4 ml of stock DNAse solution is added to 76 ml of HBE and aerated before use. The pH of the solution is adjusted to 7.5 with 2M Tris Buffer. The comminuted tissue is passed through nylon mesh into DNAse solution and incubated at ambient temperature for 20 minutes. The cells obtained thereby are dispersed, filtered through nylon mesh and centrifuged at 1000 RPM's for 7 minutes. […] Immediately before use, 6.1 mg of L-cysteine is dissolved in 5 ml RPMI-BSA. The final incubation medium is (by volume) 80% RPMI-BSA, 10% glucose/PA/IMX solution and 10% L-cysteine solution. For the actual assay procedure, microfuge tubes are prepared as follows: Into each tube are placed (a) 100 μl of the stimulant dibutyryl cyclic AMP made up in H2 O or an equal volume of distilled H2 O; (b) 100 μl of drug made up in RPMSI-BSA or an equal volume of RPMI-BSA; (c) 750 μl of the cell suspension; and (d) 50 μl of ^14 C-aminopyrine solution. The tubes are shaken in a 37° C. water bath in a O2 /CO2 (95/5%) atmosphere at about 110 cycles/minute, and incubated for 2 hours. The tubes are then microfuged for 30 seconds, the pellet surface rinsed with 500 μl RPMI-BSA and the cells dispersed in 500 μl distilled H2 O. The cells are then transferred to mini-scintillation vials with 5.75 ml of Hydrofluor, vortexed and counted in a Packard liquid scintillation counter. The inhibition of ^14 C-AP uptake is quantified from the scintillation count results and the IC50 for test compounds is calculated. The results for some of the compounds of the invention and for the two known (H^+ +K^+)ATPase inhibitors, omeprazole and timoprazole, are given in Table I.

For assay [2], the system named is spontaneous gastric secretions. Description: Pyloric-ligated rat assay (inhibition of gastric acid output). The assay is classed as in vivo. The note with it: male rats, intraduodenal, 4 hours after pylorus ligation. As for the experimental part:
The procedures for these tests and the results for some of the compounds of the invention are presented at the end of the following examples, which will serve to illustrate the present invention. […] Male Charles River SC/CD rats weighing 190-260 gm are fasted for 24 hours with access to tap water ad libitum until the test. Groups of 10 rats each are assigned to either control or drug treatment. Under […] anesthesia, a midline laparotomy is performed and a ligature is tightly secured around the pylorus. Either control vehicle (0.25% aqueous methylcellulose) or drug in control vehicle is administered intraduodenally, 1 ml/kg, immediately after ligating the pylorus. The abdominal incision is closed with wound clips and the rats (2 per cage) are allowed to recover from anesthesia. After four hours the rats are sacrificed by CO2 asphyxiation. Their stomachs are removed and the accumulated gastric contents are emptied into graduated tubes. The gastric samples are centrifuged for 10 minutes. Samples contaminated with food or fecal material are discarded. The volume of gastric juice is recorded and the acid concentration of 1.0 ml sample aliquots is measured by electrometric titration to pH 7.0 using 0.1N sodium hydroxide. Titratable acid output is calculated in microequivalents and the percent inhibition of acid output is calculated as follows: [formula] The test results for a compound of the invention and for the known (H^+ +K^+)ATPase inhibitors omeprazole and timoprazole, expressed as ED50 's, are as follows: […]

Assay [3] concerns cold restraint/stress ulcerogenesis. Description: Cold restraint/stress ulcerogenesis assay (cytoprotective effect). The class given is in vivo. Particulars: Rattus norvegicus; male rats, oral, cold (4±1° C.) restraint; read-out: Inhibition, ED50 (cold restraint/stress ulcers). On the procedure:
The procedures for these tests and the results for some of the compounds of the invention are presented at the end of the following examples, which will serve to illustrate the present invention. The ability of the compounds of the invention to exert a cytoprotective effect is examined in the cold restraint/stress ulcerogenesis assay. Male Charles River rats weighing between 120-160 gm are deprived of food for 18 hours with water ad libitum. The rats are divided into groups of ten and dosed by the oral route with test compound, 50 mg/kg, or vehicle control, 0.5% carboxymethylcellulose, in a volume of 5 ml/kg. Immediately after dosing, the animals are inserted into aluminum restraining tubes measuring 15/8 inches in diameter by 8 inches and placed in the cold (4±1° C.). […] At the end of the test period the animals are killed, the duodenum and esophagus ligated, and the stomach removed. The stomachs are inflated with water, opened along the lesser curvature, spread over the index finger, and the mucosa wiped off to expose the submucosa. The number of hemorrhage sites in the submucosa are counted by visual observation and recorded. Compounds are reported by determining (A) a percent inhibition which is calculated as follows: [formula] or (B) a mean ulcer number ±S.E.M. for each drug treated group and comparing it to that calculated for the control group. The test results for a compound of the invention and for the known (H^+ +K^+)ATPhase inhibitors omeprazole and timoprazole, expressed as ED50 's, are as follows: […]

The next assay addresses T2, H2-receptor (Cavia porcellus, UniProt P47747).
T2 construct: from tissue; host or cells: Guinea pig right atrium, spontaneously beating
Description: Histamine-induced positive chronotropic response in the spontaneously beating right atrium of the guinea pig heart (H2-receptor antagonism). The note with it: at a level of 1×10^-6 M; 30 minutes after addition. As for the experimental part:
The tissue is allowed to stabilize over 1 hour. Individual contractions are recorded with a force-displacement transducer through a strain gauge coupler. […] The test compound is added to the tissue bath at the desired final concentration. Thirty minutes after addition of the compound, a fresh histamine dose response curve is again obtained. Then the response to histamine in the presence of antagonist is compared to the histamine control response. This procedure is repeated, using fresh tissues, for each concentration of antagonist tested.

For assay [4], the system named is (H^+ +K^+)ATPase. Particulars: Fellenius, Nature 220, 159-160 (1981); cited from earlier work.
In the next assay the test system is gastric secretions. The note with it: cited from earlier work.
Assay [5] relates to isolated guinea pig gastric mucosa. The note with it: dibutyryl cyclic AMP stimulation after pretreatment with theophylline; cited from earlier work.

T1 sequence (P09626 whole entry): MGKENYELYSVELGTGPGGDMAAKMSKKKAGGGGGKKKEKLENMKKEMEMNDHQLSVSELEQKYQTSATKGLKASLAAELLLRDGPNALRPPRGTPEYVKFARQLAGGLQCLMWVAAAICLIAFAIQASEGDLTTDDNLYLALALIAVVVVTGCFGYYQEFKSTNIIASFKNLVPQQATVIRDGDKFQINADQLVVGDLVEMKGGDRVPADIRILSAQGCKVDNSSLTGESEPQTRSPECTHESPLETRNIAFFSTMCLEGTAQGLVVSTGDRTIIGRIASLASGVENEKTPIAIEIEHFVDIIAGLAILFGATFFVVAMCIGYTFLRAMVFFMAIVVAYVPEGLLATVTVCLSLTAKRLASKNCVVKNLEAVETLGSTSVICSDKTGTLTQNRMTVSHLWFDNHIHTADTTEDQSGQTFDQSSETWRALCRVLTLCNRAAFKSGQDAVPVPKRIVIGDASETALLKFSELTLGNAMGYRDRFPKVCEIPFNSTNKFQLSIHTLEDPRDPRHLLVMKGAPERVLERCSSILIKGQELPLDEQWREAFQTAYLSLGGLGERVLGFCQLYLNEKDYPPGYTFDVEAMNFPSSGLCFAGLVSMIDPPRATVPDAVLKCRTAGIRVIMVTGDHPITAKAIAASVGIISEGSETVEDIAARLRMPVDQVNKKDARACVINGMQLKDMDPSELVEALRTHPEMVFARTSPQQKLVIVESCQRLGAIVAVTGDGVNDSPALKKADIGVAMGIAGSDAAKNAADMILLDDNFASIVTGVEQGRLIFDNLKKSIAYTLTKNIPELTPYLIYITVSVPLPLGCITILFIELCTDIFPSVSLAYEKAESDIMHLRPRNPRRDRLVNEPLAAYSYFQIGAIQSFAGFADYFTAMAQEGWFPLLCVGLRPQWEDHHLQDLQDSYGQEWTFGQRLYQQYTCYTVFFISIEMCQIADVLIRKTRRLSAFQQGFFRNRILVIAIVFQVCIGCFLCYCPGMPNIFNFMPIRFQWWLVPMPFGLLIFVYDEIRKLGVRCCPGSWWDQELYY
T1 sequence (P18598 whole entry partner): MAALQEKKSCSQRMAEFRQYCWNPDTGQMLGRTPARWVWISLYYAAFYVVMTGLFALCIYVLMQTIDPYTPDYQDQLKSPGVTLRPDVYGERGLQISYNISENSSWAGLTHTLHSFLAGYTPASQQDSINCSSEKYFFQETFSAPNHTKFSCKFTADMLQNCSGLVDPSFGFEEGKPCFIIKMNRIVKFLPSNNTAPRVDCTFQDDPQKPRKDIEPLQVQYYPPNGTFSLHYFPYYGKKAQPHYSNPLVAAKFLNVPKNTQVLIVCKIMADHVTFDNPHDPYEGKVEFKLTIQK
T2 sequence (P47747 whole entry): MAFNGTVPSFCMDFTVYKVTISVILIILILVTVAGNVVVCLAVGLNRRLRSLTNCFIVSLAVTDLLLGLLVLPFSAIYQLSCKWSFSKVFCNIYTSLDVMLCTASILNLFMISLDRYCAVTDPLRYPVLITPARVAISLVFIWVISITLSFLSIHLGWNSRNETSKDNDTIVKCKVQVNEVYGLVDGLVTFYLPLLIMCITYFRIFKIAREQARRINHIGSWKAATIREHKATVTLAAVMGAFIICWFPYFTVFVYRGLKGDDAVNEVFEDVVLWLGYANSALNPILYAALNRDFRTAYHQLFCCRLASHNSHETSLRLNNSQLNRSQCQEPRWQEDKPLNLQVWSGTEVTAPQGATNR

On to `O=S1(=O)N=C(N(CCCOc2cccc(CN3CCCCC3)c2)Cc2ccc3c(c2)OCO3)c2cscc21` [Example 3, N-(1,3-benzodioxol-5-ylmethyl)-N-[3-[3-(1-piperidinylmethyl)phenoxy]propyl]thieno[3,4-d]isothiazol-3-amine 1,1-dioxide, ethanedioate (1:1)], for which, on (H^+ +K^+)ATPase [1], the concentration for half-maximal inhibition (IC50) turned out to be 5000 nM.
For `[O-][S+](Cc1ccccn1)c1nc2ccccc2[nH]1` (centres unmarked) [timoprazole], the IC50 at (H^+ +K^+)ATPase [1] was determined as 1000 nM. The ED50 in assay [2] was 4 mg/kg; in assay [3] it was 8 mg/kg.
As for `Nc1c(N(CCCOc2cccc(CN3CCCCC3)c2)Cc2ccc3c(c2)OCO3)c(=O)c1=O` [Example 4], on (H^+ +K^+)ATPase [1], the IC50 turned out to be 10000 nM.
Regarding `O=S1(=O)N=C(N(CCCOc2cccc(CN3CCCCC3)c2)Cc2ccccc2)c2cscc21` [Example 1, N-(Phenylmethyl)-N-[3-[3-(1-piperidinylmethyl)phenoxy]propyl]thieno[3,4-d]isothiazol-3-amine 1,1-dioxide, ethanedioate (1:1)], the IC50 on (H^+ +K^+)ATPase [1] stood at 400 nM. The values for the ED50 in assay [2] and in assay [3] were 8 mg/kg and 6 mg/kg, respectively. The “H2-receptor antagonist activity (guinea pig right atrium)” value on H2-receptor was “inactive”.
Regarding `O=S1(=O)N=C(N(CCCOc2cccc(CN3CCCCC3)c2)Cc2ccccc2)c2ccccc21` [Example 2, N-(Phenylmethyl)-N-[3-[3-(1-piperidinylmethyl)phenoxy]propyl]-1,2-benzoisothiazol-3-amine 1,1-dioxide, ethanedioate], the IC50 at (H^+ +K^+)ATPase [1] was 100 nM.
`CN/C(=N/CCSCc1nc[nH]c1C)NC#N` [cimetidine]: the “inhibition of proton transport by inhibition of (H^+ +K^+)ATPase” value in the assay with (H^+ +K^+)ATPase [4] is “devoid of this activity”. Moreover, the “inhibition of gastric secretions” value with gastric secretions was “inhibit only those gastric secretions which were agonized by histamine”.
For the molecule `COc1ccc2[nH]c([S+]([O-])Cc3ncc(C)c(OC)c3C)nc2c1` (centres unmarked) [omeprazole], the IC50 at (H^+ +K^+)ATPase [1] stood at 10 nM. The results for the ED50 in assay [2] and in assay [3] were 6 mg/kg and 12 mg/kg, respectively. Besides, in assay [5], the “inhibition of stimulated secretion in isolated guinea pig gastric mucosa” value is given as “such stimulated secretion can be inhibited by omeprazole”. Further, the “inhibition of proton transport by inhibition of (H^+ +K^+)ATPase” value with (H^+ +K^+)ATPase [4] was “only omeprazole inhibited proton transport by the inhibition of (H^+ +K^+)ATPase”.

For orientation: IC50 means the midpoint of a concentration-inhibition curve.

The values are drawn from patent US4595757A, “N-alkylated benzo- and hetero-fused antisecretory agents” (American Home Products Corporation, priority 1984, dated 1986).
